ChEMBL document CHEMBL1833868, “Design and synthesis of resveratrol-based nitrovinylstilbenes as antimitotic agents” (J Med Chem, 2011)
pIC50: −log10 of the molar value. Active and inactive are the calls of the source. The rule behind the calls is not given here.

How the values were obtained:
HeLa [1] = test: Antimitotic activity in human HeLa cells assessed as disruption of microtubule network at 5 uM after 24 hrs by indirect immunofluorescence analysis; assay type: functional, cell-based
HeLa [2] = test: Antiproliferative activity against human HeLa cells assessed as cell viability after 48 hrs by SRB assay; assay type: functional, cell-based; details: for pIC50: Homo sapiens, HeLa, 48 h; for IC50: hela
HeLa [3] = test: Induction of cell cycle arrest in human HeLa cells assessed as accumulation of cells in G2/M phase at 5 uM after 24 hrs by flow cytometry analysis (reference value: 21.29%); assay type: functional
Bos taurus = organism: Bos taurus; test: Inhibition of bovine tubulin polymerization at 3 uM after 1 hr by fluorescence assay relative to control
A549 = test: Antiproliferative activity against human A549 cells assessed as cell viability after 48 hrs by SRB assay; assay type: functional, cell-based; details: A549, 48 h
HeLa [4] = test: Effect on nuclear condensation in human HeLa cells assessed as incomplete chromosome formation at 5 uM after 24 hrs by indirect immunofluorescence analysis; assay type: functional, cell-based
HeLa [5] = test: Induction of cell cycle arrest in human HeLa cells assessed as accumulation of cells in G1 phase at 5 uM after 24 hrs by flow cytometry analysis (reference value: 69.43%); assay type: functional
HeLa [6] = test: Induction of apoptosis in human HeLa cells assessed as increase in caspase 3 activity at 5 uM after 24 hrs by fluorimetry relative to control; assay type: functional
MCF7 = test: Antiproliferative activity against human MCF7 cells assessed as cell viability after 48 hrs by SRB assay; assay type: functional, cell-based; details: MCF7, 48 h
[7] = Inhibition of bovine tubulin assembly after 1 hr by fluorescence assay; set-up: species or system Bos taurus
HeLa [8] = test: Induction of cell cycle arrest in human HeLa cells assessed as accumulation of cells in S phase at 5 uM after 24 hrs by flow cytometry analysis (reference value: 9.28%); assay type: functional
HeLa [9] = test: Effect on formation of bipolar spindles in human HeLa cells at 5 uM after 24 hrs by indirect immunofluorescence analysis; assay type: functional, cell-based
HeLa [10] = test: Induction of apoptosis in human HeLa cells assessed as increase in caspase 3 activity at 40 uM after 24 hrs by fluorimetry relative to control; assay type: functional
HeLa [11] = test: Induction of apoptosis in human HeLa cells assessed as increase in caspase 3 activity at 5 uM after 24 hrs by fluorimetry; assay type: functional, cell-based

Row | SMILES | Activity (HeLa [1]) | pIC50 (HeLa [2]) | Activity (HeLa [3]) [%] | inhibition (Bos taurus) [%] | pIC50 (A549) | Activity (HeLa [4]) | Activity (HeLa [5]) [%] | fold change (FC) (HeLa [6]) | pIC50 (MCF7) | pIC50 [7] | Activity (HeLa [8]) [%] | Activity (HeLa [9]) | fold change (FC) (HeLa [10]) | Activity (HeLa [11]) | IC50 (HeLa [2])
1 | COc1ccc(/C=C/c2c(/C=C/[N+](=O)[O-])cc(OC)c(OC)c2OC)cc1 | Active | 5.11 | 60.4 | 59 | 4.39 | Active | 16.64 | 10 | 4.67 | 5.31 | 22.96 | inactive |  |  | 
2 | Oc1ccc(/C=C/c2cc(O)cc(O)c2)cc1 [RESVERATROL] |  | 4.65 |  |  | 4.35 |  |  |  | 4.10 |  |  |  | 5 | inactive | 
3 | COc1cc(/C=C/[N+](=O)[O-])c(/C=C/c2ccccc2)c(OC)c1OC |  | 5.27 |  | 31 | 4.54 |  |  |  | 4.96 |  |  |  |  |  | 
4 | COc1cc(/C=C/[N+](=O)[O-])c(/C=C/c2ccc(Br)cc2)c(OC)c1OC |  |  |  | 28 | 4.39 |  |  |  | 4.84 |  |  |  |  |  | Not Active
5 | COc1cc(/C=C/c2c(/C=C/[N+](=O)[O-])cc(OC)c(OC)c2OC)cc(OC)c1 |  | 5.00 |  | 27 | 4.82 |  |  |  | 4.72 |  |  |  |  |  | 
6 | COc1cc(/C=C/[N+](=O)[O-])c(/C=C/c2ccc(C)cc2)c(OC)c1OC | Active | 5.36 | 66.43 | 62 | 4.72 | Active | 9.66 | 12 | 4.37 | 5.37 | 23.91 | inactive |  |  | 
7 | COc1cc(/C=C/[N+](=O)[O-])c(/C=C/c2ccc(-c3ccccc3)cc2)c(OC)c1OC |  |  |  | 28 | 4.35 |  |  |  | 5.14 |  |  |  |  |  | Not Active
8 | COc1cc(/C=C/[N+](=O)[O-])c(/C=C/c2ccc(Cl)cc2)c(OC)c1OC |  |  |  | 33 | 4.64 |  |  |  | 4.59 |  |  |  |  |  | Not Active
9 | COc1cc(/C=C/c2c(/C=C/[N+](=O)[O-])cc(OC)c(OC)c2OC)cc(OC)c1OC |  |  |  | 20 | 4.57 |  |  |  | 4.88 |  |  |  |  |  | Not Active
10 | COc1cc(/C=C/[N+](=O)[O-])c(/C=C/c2ccc3ccccc3c2)c(OC)c1OC |  | 3.72 |  | 32 | 4.23 |  |  |  | 4.78 |  |  |  |  |  | 
11 | COc1cc(/C=C/[N+](=O)[O-])c(/C=C/c2ccc3c(c2)OCO3)c(OC)c1OC |  | 5.27 | 50.56 | 51 | 4.79 |  | 27.14 |  | 4.72 | 5.10 | 22.3 |  |  |  | 
12 | COc1cc(/C=C/[N+](=O)[O-])c(/C=C/c2ccc(F)cc2)c(OC)c1OC |  | 4.91 |  | 31 | 4.44 |  |  |  | 4.72 |  |  |  |  |  | 
13 | COc1cc2c(c(OC)c1OC)-c1ccc(OC)c(=O)cc1[C@@H](NC(C)=O)CC2 [COLCHICINE] |  |  |  | 58 |  |  |  |  |  | 5.71 |  |  |  |  | 
